Experimental data published in patent publication US10829473B2, “Modulators of the cystic fibrosis transmembrane conductance regulator protein and methods of use” (AbbVie Overseas S.Á.R.L., priority 2017, dated 2020).
Read-outs that look alike come from different tables or passages of the source. Marks after values point to notes of the source that are not given here.

Molecular target: T1, F508delCFTR (Homo sapiens, UniProt P13569, DEL508-508)
T1 construct: expressed in transfected cells; host or cells: CFBE41o- human lung derived epithelial cells (CFBE41o-F508delCFTR-HRP), doxycycline-inducible
Experiment: Cell Surface Expression-Horse Radish Peroxidase (CSE-HRP) Assay;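 for EC50 (with co-corrector): co-corrector chromenyl benzoic acid corrector at 2 or 3 µM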;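 for Maximum % activity (without co-corrector): % of on-plate positive control chromenyl benzoic acid corrector at 2 or 3 µM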
Format: cell-based
Conditions: for Maximum % activity (with co-corrector) / Emax: maximum at any tested concentration; for Emax: read-out: Maximum % activity (without co-corrector)
Summary of the method: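 Corrector compounds were given as 8-point 3-fold series from 20 or 30 μM, with or without a 2 μM co-corrector, for 18-24 h at 33 °C. Surface HRP was read by luminol luminescence as % of positive control; variable-Hill-slope sigmoidal fitting gave EC50 from triplicate plates.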

[1] = test compound with co-corrector
[2] = test compound with co-corrector, read-out: EC50 (with co-corrector)
[3] = test compound without co-corrector
[4] = test compound without co-corrector, read-out: EC50 (without co-corrector)
[5] = test compound alone, without co-corrector, read-out: EC50 (without co-corrector)
[6] = with co-corrector, read-out: EC50 (with co-corrector)

T1 sequence (P13569 with tags, fused parts or gaps DEL508-508): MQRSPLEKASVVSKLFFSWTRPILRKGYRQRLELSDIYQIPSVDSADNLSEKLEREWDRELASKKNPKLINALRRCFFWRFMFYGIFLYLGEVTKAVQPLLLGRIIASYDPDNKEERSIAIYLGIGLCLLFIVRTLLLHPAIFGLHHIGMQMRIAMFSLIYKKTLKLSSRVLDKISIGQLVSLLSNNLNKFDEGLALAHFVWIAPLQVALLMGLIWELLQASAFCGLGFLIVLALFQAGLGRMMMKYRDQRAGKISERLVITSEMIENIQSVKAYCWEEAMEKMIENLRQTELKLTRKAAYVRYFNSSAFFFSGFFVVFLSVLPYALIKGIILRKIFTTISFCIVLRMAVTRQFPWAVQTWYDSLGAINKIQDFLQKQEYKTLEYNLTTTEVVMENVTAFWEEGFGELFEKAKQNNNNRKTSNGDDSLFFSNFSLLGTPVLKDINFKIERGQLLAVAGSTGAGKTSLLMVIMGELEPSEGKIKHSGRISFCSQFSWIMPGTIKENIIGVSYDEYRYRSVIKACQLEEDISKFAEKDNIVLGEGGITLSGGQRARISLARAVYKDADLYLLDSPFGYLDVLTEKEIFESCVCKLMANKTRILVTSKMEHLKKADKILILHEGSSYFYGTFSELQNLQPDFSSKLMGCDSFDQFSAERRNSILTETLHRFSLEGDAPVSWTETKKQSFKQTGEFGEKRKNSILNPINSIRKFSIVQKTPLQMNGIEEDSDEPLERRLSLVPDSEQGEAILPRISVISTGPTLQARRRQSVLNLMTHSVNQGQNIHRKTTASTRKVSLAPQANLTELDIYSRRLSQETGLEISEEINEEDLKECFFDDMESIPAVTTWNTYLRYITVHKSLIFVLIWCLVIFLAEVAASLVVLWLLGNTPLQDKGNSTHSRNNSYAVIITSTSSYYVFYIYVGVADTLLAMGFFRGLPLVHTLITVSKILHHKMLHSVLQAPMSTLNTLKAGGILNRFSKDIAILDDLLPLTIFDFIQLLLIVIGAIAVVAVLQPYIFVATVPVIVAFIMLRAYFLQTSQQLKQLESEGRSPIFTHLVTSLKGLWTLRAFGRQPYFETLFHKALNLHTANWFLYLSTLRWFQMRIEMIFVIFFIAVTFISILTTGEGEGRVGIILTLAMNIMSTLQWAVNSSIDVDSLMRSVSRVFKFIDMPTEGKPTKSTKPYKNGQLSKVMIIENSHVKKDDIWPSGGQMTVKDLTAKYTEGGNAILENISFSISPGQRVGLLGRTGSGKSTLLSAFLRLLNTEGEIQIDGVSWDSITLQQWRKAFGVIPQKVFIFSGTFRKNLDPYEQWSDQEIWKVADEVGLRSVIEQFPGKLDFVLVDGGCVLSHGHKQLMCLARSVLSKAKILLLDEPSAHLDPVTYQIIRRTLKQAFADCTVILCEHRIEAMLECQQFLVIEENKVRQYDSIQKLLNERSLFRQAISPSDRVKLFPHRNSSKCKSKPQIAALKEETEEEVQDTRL

Row | SMILES | Maximum % activity (with co-corrector) [1] | EC50 [2] [µM] | Emax [3] [%] | EC50 [4] [µM] | EC50 (with co-corrector) [1] | EC50 (without co-corrector) [3] | EC50 [5] [µM] | EC50 [6] [µM] | Maximum % activity (with co-corrector) (with co-corrector) | Emax (without co-corrector) [%]
1 | CCOc1ncc(C2CCC2)cc1C1(C(=O)NS(=O)(=O)c2cccc3nc(C)ccc23)CC1 [Example GI-115, 1-(5-cyclobutyl-2-ethoxypyridin-3-yl)-N-(2-methylquinoline-5-sulfonyl)cyclopropane-1-carboxamide] | +++ (≥350) | < 3 | > 150 | < 3 |  |  |  |  |  | 
2 | O=C(NS(=O)(=O)c1cccc2ncccc12)C1(c2cc(C3CC3)cnc2N2CCOCC2)CC1 [GIII-25] | ++ (≥150 and <350) |  | 50 to 150 |  | ++^a | ++^a |  |  |  | 
3 | COc1ccc(C2CC2)cc1C1(C(=O)NS(=O)(=O)c2cccc3nc(C)ccc23)CC1 [Example I-68, 1-(5-cyclopropyl-2-methoxyphenyl)-N-(2-methylquinoline-5-sulfonyl)cyclopropane-1-carboxamide] |  |  |  |  |  |  | < 3 | < 3 |  | 
4 | CC(C)COc1ncc(C2CC2)cc1C1(C(=O)NS(=O)(=O)c2cccc3[nH]ccc23)CC1 [Example GI-50, 1-[5-cyclopropyl-2-(2-methylpropoxy)pyridin-3-yl]-N-(1H-indole-4-sulfonyl)cyclopropane-1-carboxamide] | +++ (≥350) | < 3 | > 150 | < 3 |  |  |  |  |  | 
5 | Cc1ccc(C2(C(=O)NS(=O)(=O)c3cccc4nc(C)ccc34)CC2)c(OC(C)C)n1 [Example GI-81, 1-{6-methyl-2-[(propan-2-yl)oxy]pyridin-3-yl}-N-(2-methylquinoline-5-sulfonyl)cyclopropane-1-carboxamide] | +++ (≥350) | < 3 | > 150 | < 3 |  |  |  |  |  | 
6 | COc1ccc(Cl)c(OC)c1C1(C(=O)NS(=O)(=O)c2cccc3ncccc23)CC1 [II-54] |  |  |  |  |  |  | < 3 | < 3 | +++ (≥350) | > 150
7 | O=C(NS(=O)(=O)c1cccc2ccccc12)C1(c2ccc(C(F)(F)F)nc2C2CCC2)CC1 [Example GI-11, 1-[2-cyclobutyl-6-(trifluoromethyl)pyridin-3-yl]-N-(naphthalene-1-sulfonyl)cyclopropane-1-carboxamide] |  |  |  |  |  |  | < 3 | < 3 | +++ (≥350) | > 150
8 | COc1ncc(C2CCC2)cc1C1(C(=O)NS(=O)(=O)c2cccc3ccn(C)c23)CC1 [Example I-20, 1-(5-cyclobutyl-2-methoxypyridin-3-yl)-N-(1-methyl-1H-indole-7-sulfonyl)cyclopropane-1-carboxamide] |  |  |  |  |  |  | < 3 | < 3 | +++ (≥350) | > 150
9 | O=C(NS(=O)(=O)c1ccc(OC(F)(F)F)cc1)C1(c2ccc(Cl)cc2Cl)CC1 [Example III-14, 1-(2,4-dichlorophenyl)-N-[4-(trifluoromethoxy)benzene-1-sulfonyl]cyclopropane-1-carboxamide] |  |  |  |  |  |  | > 10 | > 10 | + (<150) | < 50
10 | COC1CCN(c2ncc(C3CCC3)cc2C2(C(=O)NS(=O)(=O)c3cccc4[nH]ccc34)CC2)CC1 [Example GI-57, 1-[5-cyclobutyl-2-(4-methoxypiperidin-1-yl)pyridin-3-yl]-N-(1H-indole-4-sulfonyl)cyclopropane-1-carboxamide] | +++ (≥350) | < 3 | > 150 | < 3 |  |  |  |  |  | 
11 | COc1ccc(C2(C(=O)NS(=O)(=O)c3cccc4ccccc34)CCC2)cc1OC [Example III-121, 1-(3,4-dimethoxyphenyl)-N-(naphthalene-1-sulfonyl)cyclobutane-1-carboxamide] |  |  |  |  |  |  | > 10 | > 10 | + (<150) | < 50
12 | O=C(NS(=O)(=O)c1cccc2c(O)cccc12)C1(c2cccc(Cl)c2)CC1 [Example III-57, 1-(3-chlorophenyl)-N-(5-hydroxynaphthalene-1-sulfonyl)cyclopropane-1-carboxamide] |  |  |  |  |  |  | > 10 | > 10 | + (<150) | < 50
13 | COc1cccc(C2(C(=O)NS(=O)(=O)c3cccc4ncccc34)CC2)c1 [II-56] |  |  |  |  |  |  | 3 to 10 | 3 to 10 | +++ (≥350) | > 150
14 | O=C(NS(=O)(=O)c1cccc2ccccc12)C1(c2ccc3c(c2)OC(F)(F)O3)CC1 [Example III-91, 1-(2,2-difluoro-2H-1,3-benzodioxol-5-yl)-N-(naphthalene-1-sulfonyl)cyclopropane-1-carboxamide] |  |  |  |  |  |  | > 10 | 3 to 10 | +++ (≥350) | > 150
15 | O=C(NS(=O)(=O)Cc1ccccc1)C1(c2cccc(Cl)c2)CC1 [Example III-109, 1-(3-chlorophenyl)-N-(phenylmethanesulfonyl)cyclopropane-1-carboxamide] |  |  |  |  |  |  | > 10 | > 10 | + (<150) | < 50
16 | COc1cnc(OCC2CC2)c(C2(C(=O)NS(=O)(=O)c3cccc4nc(C)ccc34)CC2)c1 [Example GI-92, 1-[2-(cyclopropylmethoxy)-5-methoxypyridin-3-yl]-N-(2-methylquinoline-5-sulfonyl)cyclopropane-1-carboxamide] | +++ (≥350) | < 3 | > 150 | < 3 |  |  |  |  |  | 
17 | COc1ccc(C2CCC2)cc1C1(C(=O)NS(=O)(=O)c2cccc3nc(N)ccc23)CC1 [Example I-67, N-(2-aminoquinoline-5-sulfonyl)-1-(5-cyclobutyl-2-methoxyphenyl)cyclopropane-1-carboxamide] |  |  |  |  |  |  | 3 to 10 | < 3 | +++ (≥350) | > 150
18 | CCc1cnc(N(C)C)c(C2(C(=O)NS(=O)(=O)c3cccc4ncccc34)CC2)c1 [GII-47, 1-[2-(dimethylamino)-5-ethylpyridin-3-yl]-N-(quinoline-5-sulfonyl)cyclopropane-1-carboxamide] | +++ (≥350) | > 10 | > 150 | 3 to 10 |  |  |  |  |  | 
19 | COc1ccc(C2CCC2)cc1C1(C(=O)NS(=O)(=O)c2cccc3ccn(C)c23)CC1 [Example I-59, 1-(5-cyclobutyl-2-methoxyphenyl)-N-(1-methyl-1H-indole-7-sulfonyl)cyclopropane-1-carboxamide] |  |  |  |  |  |  | < 3 | < 3 | +++ (≥350) | > 150
20 | COc1ccc(C2CCC2)cc1C1(C(=O)NS(=O)(=O)c2cccc3nc(C)ccc23)CC1 [Example I-63, 1-(5-cyclobutyl-2-methoxyphenyl)-N-(2-methylquinoline-5-sulfonyl)cyclopropane-1-carboxamide] |  |  |  |  |  |  | < 3 | < 3 | +++ (≥350) | > 150
21 | COc1cc(C2(C(=O)NS(=O)(=O)c3cccc4ncccc34)CC2)c(OCC(F)F)cn1 [GIII-18] | ++ (≥150 and <350) |  | 50 to 150 |  | ++^a | ++^a |  |  |  | 
22 | COCC(C)(C)c1ccc(OC)c(C2(C(=O)NS(=O)(=O)c3cccc4ncccc34)CC2)c1 [Example I-110, 1-[2-methoxy-5-(1-methoxy-2-methylpropan-2-yl)phenyl]-N-(quinoline-5-sulfonyl)cyclopropane-1-carboxamide] |  |  |  |  |  |  | < 3 | < 3 | +++ (≥350) | > 150
23 | CCCc1nc(C(F)(F)F)ccc1C1(C(=O)NS(=O)(=O)c2cccc3ncccc23)CC1 [Example GI-4, 1-[2-propyl-6-(trifluoromethyl)pyridin-3-yl]-N-(quinoline-5-sulfonyl)cyclopropane-1-carboxamide] |  |  |  |  |  |  | 3 to 10 | < 3 | +++ (≥350) | > 150
24 | CCOc1ccc2nc(S(=O)(=O)NC(=O)C3(c4cccc(Cl)c4)CC3)sc2c1 [Example III-56, 1-(3-chlorophenyl)-N-(6-ethoxy-1,3-benzothiazole-2-sulfonyl)cyclopropane-1-carboxamide] |  |  |  |  |  |  | > 10 | > 10 | + (<150) | < 50
25 | CCc1ccc(O[C@H]2CCOC2)c(C2(C(=O)NS(=O)(=O)c3cccc4nc(C)ccc34)CC2)c1 [II-115] |  |  |  |  |  |  | < 3 | < 3 | +++ (≥350) | > 150
26 | CC(C)COc1ncc(N2CCCC2)cc1C1(C(=O)NS(=O)(=O)c2cccc3[nH]ccc23)CC1 [Example GI-70, N-(1H-indole-4-sulfonyl)-1-[2-(2-methylpropoxy)-5-(pyrrolidin-1-yl)pyridin-3-yl]cyclopropane-1-carboxamide] | +++ (≥350) | < 3 | > 150 | < 3 |  |  |  |  |  | 
27 | COc1ccc(C2CCC2)cc1C1(C(=O)NS(=O)(=O)c2cccn3nccc23)CCC1 [Example I-23, 1-(5-cyclobutyl-2-methoxyphenyl)-N-(pyrazolo[1,5-a]pyridine-4-sulfonyl)cyclobutane-1-carboxamide] |  |  |  |  |  |  | 3 to 10 | < 3 | +++ (≥350) | > 150
